Several values for one entry are separate records, joined by “and”; a condition that tells them apart may be missing. Equal values may be shown once.
Experiments:
[1] = system: ulcerative colitis patients in an active stage; experiment: Clinical study, 960 mg orally 3 times a day for 8 weeks: Riley score (histopathological assessment of large intestinal mucosal biopsy); assay type: in vivo, human
Method: (§1) The compound of Example 1 or the compound of Comparative Example 1 was orally administered after meals 3 times a day. The number of the given tablets was 8 per administration (i.e., the amount of the compound (1) of Example 1 administered was 960 mg per administration). The administration period was 8 weeks. The compounds were administered until the timing after the breakfast on the day before the assessment day at Week 8.
At the time of the endoscopic examination on the large intestine for the mucosal finding assessment, large intestinal mucosal tissues were sampled (biopsy). The biopsy for the histopathological assessment at Week 0 was conducted during the endoscopic examination on the large intestine for the eligibility determination. […] The sampled tissues were fixed with formalin to prepare histopathological specimens.
The histopathological assessment was scored by a histopathological assessment central adjudication committee according to the following criteria. A Riley score is a total score of the following items.

[2] = system: ulcerative colitis patients in an active stage; experiment: Clinical study, 960 mg orally 3 times a day for 8 weeks: subscore for mucosal finding (large intestine endoscopic examination), mucosal remission rate; assay type: in vivo, human; design: Cases by subscore for mucosal finding, figure in parentheses: unit not given here
Method: as §1
(3) Mucosal Finding (Large Intestine Endoscopic Examination) [Investigation Timings: Weeks 0 and 8 (or Discontinuation Time)]
The investigators or sub-investigators conducted the endoscopic examination on the large intestine, and checked the state of the large intestinal mucosa.
The endoscopic examination was conducted during a time from 7 days before Week 8 (or discontinuation time) until a medical interview at Week 8 (or discontinuation time). Note that the endoscopic examination on the large intestine at Week 8 (or discontinuation time) was conducted by the same physician at Week 0 when the situation allowed.
The assessment at the site served as the “subscore for mucosal finding” of the Mayo score. At Week 8 (or discontinuation time) also, the same site as that at Week 0 was assessed as the “subscore for mucosal finding” of the Mayo score.
A mucosal remission rate is a proportion of subjects each having a Mayo score with a subscore for mucosal finding of 1 point or less.

With `COC(=O)[C@H](Cc1ccc(-n2c(=O)c3cc(N(C)C)ccc3n(C)c2=O)cc1)NC(=O)c1c(Cl)cccc1Cl` [Example 1, methyl(2S)-2-(2,6-dichlorobenzamide)-3-{4-[6-(dimethylamino)-1-methyl-2,4-dioxo-1,4-dihydroquinazolin-3(2H)-yl]phenyl}propanoate] the “Riley score, Lower quartile” value ([1]; Week 0) was 9.0, the “Riley score, Maximum” value ([1]; Week 0) was 17 and the “Riley score, Mean” value ([1]; Week 0) was 11.8±2.8 and 11.8. For the same compound, the “Riley score, Median” value ([1]; Week 0) was 12.0, the “Riley score, Minimum” value ([1]; Week 0) was 6 and the “Riley score, Upper quartile” value ([1]; Week 0) was 14.0. The “Riley score, Lower quartile” value ([1]; Week 8) was 6.0, the “Riley score, Maximum” value ([1]; Week 8) was 16 and the “Riley score, Mean” value ([1]; Week 8) was 8.6±3.4 and 8.6. The “Riley score, Median” value ([1]; Week 8) was 9.0, the “Riley score, Minimum” value ([1]; Week 8) was 3 and the “Riley score, Upper quartile” value ([1]; Week 8) was 11.0. For the same compound, the “Riley score, difference in mean between Example 1 and Comparative Example 1” value ([1]; Week 8) was −1.96, the “Cases by subscore for mucosal finding, figure in parentheses” value (“Cases by subscore … in parentheses” for short) ([2]; Week 0, score 2) was 88.2 and the “Number of cases by subscore for mucosal finding” value (from here on “Number of cases by subscore”) ([2]; Week 0, score 2) was 45. The “Cases by subscore … in parentheses” value ([2]; Week 0, score 3) was 11.8, the “Number of cases by subscore” value ([2]; Week 0, score 3) was 6 and the “Difference in mucosal remission rates, Example 1 vs Comparative Example 1 (placebo)” value ([2]; Week 8) was 29.4%. The Mucosal remission cases ([2]; Week 8, 51 cases analyzed) was 30, the Mucosal remission rate ([2]; Week 8, all subjects) was 58.8% and the “Cases by subscore … in parentheses” value ([2]; Week 8, score 0) was 17.0. The “Number of cases by subscore” value ([2]; Week 8, score 0) was 8, the “Cases by subscore … in parentheses” value ([2]; Week 8, score 1) was 46.8 and the “Number of cases by subscore” value ([2]; Week 8, score 1) was 22. The “Cases by subscore … in parentheses” value ([2]; Week 8, score 2) was 34.0, the “Number of cases by subscore” value ([2]; Week 8, score 2) was 16 and the “Cases by subscore … in parentheses” value ([2]; Week 8, score 3) was 2.1. For the same compound, the “Number of cases by subscore” value ([2]; Week 8, score 3) was 1, the “Number of cases, cross tabulation of subscore for mucosal finding” value (“Number … of subscore for mucosal finding” for short) ([2]; Week 8 score 0, Week 0 score 2) was 7 and the “Number … of subscore for mucosal finding” value ([2]; Week 8 score 0, Week 0 score 3) was 1. The “Number … of subscore for mucosal finding” value ([2]; Week 8 score 1, Week 0 score 2) was 22, the “Number … of subscore for mucosal finding” value ([2]; Week 8 score 1, Week 0 score 3) was 0 and the “Number … of subscore for mucosal finding” value ([2]; Week 8 score 2, Week 0 score 2) was 13. The “Number … of subscore for mucosal finding” value ([2]; Week 8 score 2, Week 0 score 3) was 3, the “Number … of subscore for mucosal finding” value ([2]; Week 8 score 3, Week 0 score 2) was 0 and the “Number … of subscore for mucosal finding” value ([2]; Week 8 score 3, Week 0 score 3) was 1. The Mucosal remission rate ([2]; body weight 50 kg or more and disease period less than 5 years (16/22 cases)) was 72.7%.
